In patent US9580432B2, “Fused pyrimidine compound or salt thereof” (TAIHO PHARMACEUTICAL CO., LTD., priority 2013, dated 2017):

How the values were obtained:
[1] = Influence on body weight of SD rat by repeated administration (in vivo); details: two weeks; for Relative body weight ratio (%): 750 mg/kg orally once a day, relative to vehicle-administered group
Experimental: The rats were grouped as follows, with four animals in each group, by a random classification method such that the average body weights of the each groups would be almost uniform (Day 1).
The body weight change (BWC) was used as an index indicating the systemic toxicity caused by drug administration. The BWC was calculated by the following formula. BWC (%)=([(Rat body weight on 14 days after the administration)−(rat body weight at the time of grouping)]/(rat body weight at the time of grouping))×100
The relative body weight change ratios in the each compound-administered groups were calculated by the following formula when the BWC in the vehicle-administered group was set as 1, and the results are indicated in Table 52. Relative body weight change ratio (%)=(BWC in the compound-administered group)/(BWC in the vehicle-administered group)×100

[2] = biological target: purified recombinant human BTK protein (Homo sapiens (Human), UniProt Q06187); experiment: Measurement of BTK inhibitory activity (in vitro); format: biochemical; details: FL-PEPTIDE 2 substrate 1 μM, ATP 45 μM, 40 minutes at 25° C.
Procedure, shortened: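 Recombinant human BTK with FL-PEPTIDE 2 substrate (1 μM), 45 μM ATP and 10 mM MgCl2 in 20 mM HEPES pH 7.5, 2 mM DTT, 0.01% Triton X-100, 5% DMSO; 40 min at 25° C. Reaction stopped with 30 mM EDTA. Phosphorylated and unphosphorylated peptide separated and detected by microchannel capillary electrophoresis.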

[3] = tested on: purified recombinant human EGFR protein / BTK; experiment: BTK inhibition selectivity compared with EGFR kinase inhibitory activity (in vitro); format: biochemical; details: EGFR assay ATP 1.5 μM
A431 cells / TMD8 cells = experiment: Proliferation inhibitory activity against cell lines expressing BTK and EGFR (in vitro), comparison of selectivity; format: cell-based, human; details: ratio from GI50 (nM), 3 days culture, CELLTITER GLO
Procedure, shortened: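 BTK-expressing TMD8 DLBCL cells (RPMI1640/10% FBS) and EGFR-overexpressing A431 epidermoid carcinoma cells (DMEM/10% FBS) cultured 1 day, then exposed to compound (0.2% DMSO final) for 3 days at 37° C. Luminescence read-out; inhibition ratio % = (C−T)/(C−C0)×100, with A431/TMD8 ratio as selectivity index.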

[4] = tested on: Human B cell lymphoma-derived cell line TMD8; experiment: Antitumor effect, TMD8 subcutaneously transplanted into SCID mice; format: in vivo; details: Day 17; 50 mg/kg orally once a day
Source text: (§1) Human B cell lymphoma-derived cell line TMD8 was subcutaneously transplanted into SCID mice. At the time point when the volume of engrafted tumors reached 100 to 200 mm^3, the mice were divided into groups, with 5 animals in each group, by a random classification method (Day 1) such that the tumor volumes in the various groups would be uniform, and oral administration was initiated. […] In order to compare the antitumor effect caused by the drug administration, the relative tumor volume (RTV), which was the proliferation ratio of tumor when the tumor volume at the time of grouping was set as one, was determined by the following formula. RTV=(Tumor volume on the day of tumor volume measurement)/(tumor volume at the time of grouping)

[5] = Body weight change ratio in TMD8-transplanted SCID mice; format: in vivo; details: Day 17; 50 mg/kg orally once a day
Source text: as §1
The body weight change (BWC) was used as an index indicating the systemic toxicity caused by drug administration. BWC (%)=([(mice body weight on the day of weight measurement)−(mice body weight at the time of grouping)]/(mice body weight at the time of grouping))×100 (Mathematical Formula 1)

Chain of purified recombinant human BTK protein (Q06187 whole entry): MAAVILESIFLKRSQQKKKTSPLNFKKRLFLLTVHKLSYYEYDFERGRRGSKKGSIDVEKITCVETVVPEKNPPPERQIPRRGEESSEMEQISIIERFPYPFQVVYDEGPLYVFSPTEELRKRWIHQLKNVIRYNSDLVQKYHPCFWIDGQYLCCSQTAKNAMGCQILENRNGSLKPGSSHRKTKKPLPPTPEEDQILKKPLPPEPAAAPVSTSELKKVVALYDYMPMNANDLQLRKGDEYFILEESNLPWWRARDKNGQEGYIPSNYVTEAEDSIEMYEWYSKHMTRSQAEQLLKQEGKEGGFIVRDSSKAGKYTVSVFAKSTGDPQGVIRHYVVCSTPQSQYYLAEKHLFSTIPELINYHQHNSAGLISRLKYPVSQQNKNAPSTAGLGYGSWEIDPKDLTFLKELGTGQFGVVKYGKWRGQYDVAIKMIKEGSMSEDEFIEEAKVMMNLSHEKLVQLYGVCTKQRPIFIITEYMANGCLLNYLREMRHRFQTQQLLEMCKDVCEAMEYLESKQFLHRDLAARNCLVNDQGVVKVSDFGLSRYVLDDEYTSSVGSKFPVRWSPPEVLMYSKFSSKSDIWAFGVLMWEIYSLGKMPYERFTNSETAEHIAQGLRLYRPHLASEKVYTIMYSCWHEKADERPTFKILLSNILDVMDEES

| IC50 [2] [nM] | EGFR inhibitory activity IC50 value (nM)/BTK inhibitory activity IC50 value (nM) [3] | SMILES | individuals suffering from loose bowel ([1]; 280 mg/kg orally once a day) | width of rat body weight increase compared with the vehicle-administered group ([1]; 280 mg/kg orally once a day) | A431 cell proliferation inhibition ratio/TMD8 cell proliferation inhibitio ratio (A431 cells / TMD8 cells) | RTV (relative tumor volume) [4] | BWC (body weight change) [5] [%] | Relative body weight ratio (%) [1] [%] |
| --- | --- | --- | --- | --- | --- | --- | --- | --- |
| 0.813 | 28.8 | C=CC(=O)N1CCC[C@@H](n2nc(C(=O)Nc3nc4ccccc4o3)c3c(N)ncnc32)C1 [Example 13, (R)-1-(1-acryloylpiperidin-3-yl)-4-amino-N-(benzo[d]oxazol-2-yl)-1H-pyrazolo[3,4-d]pyrimidine-3-carboxamide] |  |  | 4872.2 | 4.24 | 3.8 | 79.1 |
| 5.89 | 42.0 | C=CC(=O)N[C@H]1CC[C@@H](n2nc(C(=O)Nc3nc4ccccc4o3)c3c(N)ncnc32)CC1 [Example 71, 1-((1S,4S)-4-acrylamidocyclohexyl)-4-amino-N-(benzo[d]oxazol-2-yl)-1H-pyrazolo[3,4-d]pyrimidine-3-carboxamide] |  |  | >7657.0 |  |  |  |
| 28.1 | 12.4 | C=CC(=O)N[C@H]1CC[C@H](n2nc(C(=O)Nc3nc4ccccc4o3)c3c(N)ncnc32)CC1 [Example 72, 1-((1R,4R)-4-acrylamidocyclohexyl)-4-amino-N-(benzo[d]oxazol-2-yl)-1H-pyrazolo[3,4-d]pyrimidine-3-carboxamide] |  |  | >2802.7 |  |  |  |

The next lines start with the molecule.

| SMILES | IC50 [2] [nM] | EGFR inhibitory activity IC50 value (nM)/BTK inhibitory activity IC50 value (nM) [3] | individuals suffering from loose bowel ([1]; 280 mg/kg orally once a day) | width of rat body weight increase compared with the vehicle-administered group ([1]; 280 mg/kg orally once a day) | A431 cell proliferation inhibition ratio/TMD8 cell proliferation inhibitio ratio (A431 cells / TMD8 cells) | RTV (relative tumor volume) [4] | BWC (body weight change) [5] [%] | Relative body weight ratio (%) [1] [%] |
| --- | --- | --- | --- | --- | --- | --- | --- | --- |
| C=CC(=O)N1CCC[C@@H](n2nc(-c3ccc(Oc4ccccc4)cc3)c3c(N)ncnc32)C1 [Comparative Example Compound 1, (R)-1-(3-(4-amino-3-(4-phenoxyphenyl)-1H-pyrazolo[3,4-d]pyrimidin-1-yl)piperidin-1-yl)prop-2-en-1-one, reference compound] |  |  | individuals suffering from loose bowel were recognized | very small |  |  |  |  |
| C=CC(=O)N1CCC[C@@H](n2nc(C(=O)Nc3nc4cc(F)ccc4o3)c3c(N)ncnc32)C1 [Example 12, (R)-1-(1-acryloylpiperidin-3-yl)-4-amino-N-(5-fluorobenzo[d]oxazol-2-yl)-1H-pyrazolo[3,4-d]pyrimidine-3-carboxamide] | 0.433 | 84.2 |  |  | 3077.4 | 0.13 | 6.0 | 91.2 |
| C=CC(=O)N1CCC(Cn2nc(C(=O)Nc3nc4ccccc4o3)c3c(N)ncnc32)CC1 [Example 68, 1-((1-acryloylpiperidin-4-yl)methyl)-4-amino-N-(benzo[d]oxazol-2-yl)-1H-pyrazolo[3,4-d]pyrimidine-3-carboxamide] | 13.2 | 11.4 |  |  | >4785.8 |  |  |  |
| C=CC(=O)N1CC(Cn2nc(C(=O)Nc3nc4ccccc4o3)c3c(N)ncnc32)C1 [Example 70, 1-((1-acryloylazetidin-3-yl)methyl)-4-amino-N-(benzo[d]oxazol-2-yl)-1H-pyrazolo[3,4-d]pyrimidine-3-carboxamide] | 3.17 | 12.2 |  |  | >8369.4 |  |  |  |
